What was measured:
common poppy (PAPRH) = assay: Postemergence greenhouse trial, % visual injury on common poppy; format: in vivo, Papaver rhoeas; conditions: PAPRH; for % visual injury, Ob: CQC-m 0 g/ha
Procedure, shortened: (§1)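 Herbicide rates g ae/ha, safener (cloquintocet-mexyl) rates g ai/ha; spray carrier 1.5% v/v crop oil concentrate, 187 L/ha, 2nd–3rd leaf stage. Rating: visual % injury at 20-22 d.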

spring barley (HORVS) = assay: Postemergence greenhouse trial, % visual injury on spring barley; format: in vivo, Hordeum vulgare; conditions: HORVS
Procedure, shortened: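 Greenhouse crops at second to third true leaf stage sprayed postemergence at 187 L/ha with herbicide (g ae/ha) plus safener (g ai/ha) in acetone/DMSO diluted into 1.5% v/v Agri-dex. Injury scored visually versus solvent-blank controls after 20-22 d, 0 (none) to 100% (complete kill); expected mixture effects by Colby's equation.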

Russian thistle (SASKR) = assay: Postemergence greenhouse trial, % visual injury on Russian thistle; format: in vivo, Salsola kali; conditions: SASKR
thistle (CIRAR) = assay: Postemergence greenhouse trial, % visual injury on thistle; format: in vivo, Cirsium arvense; conditions: Cirsium arvense, post-emergence, CIRAR, CQC-m 0, read-out: % visual injury, Ob
Procedure, shortened: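 Plants at second or third true leaf stage, greenhouse-grown (14 h photoperiod, ~23/22° C.), sprayed postemergence with compounds alone or with safener cloquintocet-mexyl in 1.5% v/v Agri-dex crop oil at 187 L/ha. Visual injury scored 0–100% versus solvent-blank controls after 20-22 d; expected mixture effects by Colby's equation.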

[1] = test system: purple deadnettle (LAMPU); assay: Postemergence greenhouse trial, % visual injury on purple deadnettle; format: in vivo, Lamium purpureum; conditions: LAMPU
Protocol: Seeds of the desired test plant species were planted in Sun Gro MetroMix® 306 planting mixture, which typically has a pH of 6.0 to 6.8 and an organic matter content of about 30 percent, in plastic pots with a surface area of 103.2 square centimeters (cm^2). When required to ensure good germination and healthy plants, a fungicide treatment and/or other chemical or physical treatment was applied. The plants were grown for 7-36 days (d) in a greenhouse with an approximate 14-hour (h) photoperiod which was maintained at about 23° C. during the day and 22° C. during the night. Nutrients and water were added on a regular basis and supplemental lighting was provided with overhead metal halide 1000-Watt lamps as necessary. The plants were employed for testing when they reached the second or third true leaf stage.
Weighed amounts of technical material were dissolved in a volume of 97:3 volume per volume (v/v) acetone/dimethyl sulfoxide (DMSO) to stock solutions. […] The concentrated stock solutions were diluted with an aqueous mixture of 1.5% v/v of Agri-dex crop oil concentrate to provide the appropriate application rates. Compound requirements are based upon a 12 milliliter (mL) application volume at a rate of 187 liters per hectare (L/ha). Stocks solutions of the safeners were prepared following the same procedure. Spray solutions of the safeners and experimental compound mixtures were prepared by adding the stock solutions to the appropriate amount of dilution solution to form a 12 mL spray solution in two-way combinations. Formulated compounds were applied to the plant material with an overhead Mandel track sprayer equipped with 8002E nozzles calibrated to deliver 187 L/ha over an application area of 0.503 square meters (m^2) at a spray height of 18 inches (43 centimeters (cm)) above average plant canopy. Control plants were sprayed in the same manner with the solvent blank. All herbicide application (component a) rates are in g ae/ha and all safener (component b) rates are in g ai/ha.
The treated plants and control plants were placed in a greenhouse as described above and watered by sub-irrigation to prevent wash-off of the test compounds. After 20-22 d, the condition of the test plants as compared with that of the control plants was determined visually and scored on a scale of 0 to 100 percent where 0 corresponds to no injury and 100 corresponds to complete kill. […] Colby's equation was used to determine the herbicidal effects expected from the mixtures. […]

pigweed (AMARE) = assay: Postemergence greenhouse trial, % visual injury on pigweed; format: in vivo, Amaranthus retroflexus; conditions: AMARE; for % visual injury, Ob: CQC-m 0 g/ha
Procedure, shortened: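 Postemergence greenhouse spray (187 L/ha, 1.5% v/v Agri-dex in water, acetone/DMSO stocks) on plants at second–third true leaf stage, ~23/22 °C, 14 h photoperiod; herbicides in g ae/ha, safener cloquintocet-mexyl in g ai/ha. Visual injury 0–100% versus solvent-blank controls after 20–22 d; Colby's equation gave expected mixture effects.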

[2] = test system: bird's-eye speedwell (VERPE); assay: Postemergence greenhouse trial, % visual injury on bird's-eye speedwell; format: in vivo, Veronica persica; conditions: VERPE, CQC-m 0 g/ha
Procedure, shortened: as §1

[3] = compound 4.375 g/ha, CQC-m 0 g/ha
[4] = compound 8.75 g/ha, CQC-m 0 g/ha
[5] = compound 17.5 g/ha, CQC-m 0 g/ha

SMILES: CCCCOC(=O)c1nc(-c2ccc3cc[nH]c3c2F)c(F)c(N)c1Cl [compound 9]
- pest or weed control at 4.38 g/ha (common poppy (PAPRH); Papaver rhoeas, post-emergence, compound 4.380 g/ha, CQC-m 0, read-out: % visual injury, Ob): 90%
- pest or weed control at 8.75 g/ha (common poppy (PAPRH); Papaver rhoeas, post-emergence, compound 8.75 g/ha, CQC-m 0, read-out: % visual injury, Ob): 87%
- pest or weed control at 17.5 g/ha (common poppy (PAPRH); Papaver rhoeas, post-emergence, compound 17.5 g/ha, CQC-m 0, read-out: % visual injury, Ob): 100%
- pest or weed control at 35 g/ha (common poppy (PAPRH); Papaver rhoeas, post-emergence, compound 35 g/ha, CQC-m 0, read-out: % visual injury, Ob): 93%
- pest or weed control at 70 g/ha (common poppy (PAPRH); Papaver rhoeas, post-emergence, compound 70 g/ha, CQC-m 0, read-out: % visual injury, Ob): 100%
- % visual injury, Ob (spring barley (HORVS); compound 4.380 g/ha, CQC-m 0): 10%
- % visual injury, Ob (spring barley (HORVS); compound 8.75 g/ha, CQC-m 0): 20%
- % visual injury, Ob (spring barley (HORVS); compound 17.5 g/ha, CQC-m 0): 30%
- % visual injury, Ob (spring barley (HORVS); compound 35 g/ha, CQC-m 0): 40%
- % visual injury, Ob (spring barley (HORVS); compound 70 g/ha, CQC-m 0): 50%
- % visual injury, Ob (Russian thistle (SASKR); compound 4.380 g/ha, CQC-m 0): 65%
- % visual injury, Ob (Russian thistle (SASKR); compound 8.75 g/ha, CQC-m 0): 70%
- % visual injury, Ob (Russian thistle (SASKR); compound 17.5 g/ha, CQC-m 0): 80%
- % visual injury, Ob (Russian thistle (SASKR); compound 35 g/ha, CQC-m 0): 85%
- % visual injury, Ob (Russian thistle (SASKR); compound 70 g/ha, CQC-m 0): 87%
- pest or weed control at 4.38 g/ha (thistle (CIRAR); compound 4.380 g/ha): 10%
- pest or weed control at 8.75 g/ha (thistle (CIRAR); compound 8.75 g/ha): 30%
- pest or weed control at 17.5 g/ha (thistle (CIRAR); compound 17.5 g/ha): 70%
- pest or weed control at 35 g/ha (thistle (CIRAR); compound 35 g/ha): 95%
- pest or weed control at 70 g/ha (thistle (CIRAR); compound 70 g/ha): 97%
- % visual injury, Ob ([1]; compound 4.380 g/ha, CQC-m 0): 83%
- % visual injury, Ob ([1]; compound 8.75 g/ha, CQC-m 0): 90%
- % visual injury, Ob ([1]; compound 17.5 g/ha, CQC-m 0): 100%
- % visual injury, Ob ([1]; compound 35 g/ha, CQC-m 0): 100%
- % visual injury, Ob ([1]; compound 70 g/ha, CQC-m 0): 100%
- pest or weed control at 4.38 g/ha (pigweed (AMARE); Amaranthus retroflexus, post-emergence, compound 4.380 g/ha, CQC-m 0, read-out: % visual injury, Ob): 10%
- pest or weed control at 8.75 g/ha (pigweed (AMARE); Amaranthus retroflexus, post-emergence, compound 8.75 g/ha, CQC-m 0, read-out: % visual injury, Ob): 20%
- pest or weed control at 17.5 g/ha (pigweed (AMARE); Amaranthus retroflexus, post-emergence, compound 17.5 g/ha, CQC-m 0, read-out: % visual injury, Ob): 50%
- pest or weed control at 70 g/ha (pigweed (AMARE); Amaranthus retroflexus, post-emergence, compound 70 g/ha, CQC-m 0, read-out: % visual injury, Ob): 100%

SMILES: Nc1cc(-c2ccc3cc[nH]c3c2F)nc(C(=O)O)c1Cl [compound 15]
- % visual injury, Ob (common poppy (PAPRH); compound 4.375 g/ha): 90%
- % visual injury, Ob (common poppy (PAPRH); compound 8.75 g/ha): 100%
- % visual injury, Ob (common poppy (PAPRH); compound 17.5 g/ha): 100%
- % visual injury, Ob (common poppy (PAPRH); compound 35 g/ha): 100%
- % visual injury, Ob (spring barley (HORVS); [3]): 0%
- % visual injury, Ob (spring barley (HORVS); [4]): 0%
- % visual injury, Ob (spring barley (HORVS); [5]): 0%
- % visual injury, Ob (spring barley (HORVS); compound 35 g/ha, CQC-m 0 g/ha): 10%
- % visual injury, Ob (spring barley (HORVS); compound 70 g/ha, CQC-m 0 g/ha): 10%
- % visual injury, Ob (Russian thistle (SASKR); [3]): 10%
- % visual injury, Ob (Russian thistle (SASKR); [4]): 10%
- % visual injury, Ob (Russian thistle (SASKR); [5]): 10%
- % visual injury, Ob (Russian thistle (SASKR); compound 35 g/ha, CQC-m 0 g/ha): 60%
- % visual injury, Ob (Russian thistle (SASKR); compound 70 g/ha, CQC-m 0 g/ha): 70%
- % visual injury, Ob ([2]; compound 4.375 g/ha): 85%
- % visual injury, Ob ([2]; compound 8.75 g/ha): 85%
- % visual injury, Ob ([2]; compound 17.5 g/ha): 90%
- % visual injury, Ob ([2]; compound 35 g/ha): 93%
- % visual injury, Ob ([2]; compound 70 g/ha): 95%
- % visual injury, Ob [1, 3]: 93%
- % visual injury, Ob [1, 4]: 95%
- % visual injury, Ob [1, 5]: 93%
- % visual injury, Ob ([1]; compound 35 g/ha, CQC-m 0 g/ha): 93%
- % visual injury, Ob ([1]; compound 70 g/ha, CQC-m 0 g/ha): 95%
- % visual injury, Ob (pigweed (AMARE); compound 4.375 g/ha): 70%
- % visual injury, Ob (pigweed (AMARE); compound 8.75 g/ha): 100%
- % visual injury, Ob (pigweed (AMARE); compound 17.5 g/ha): 100%
- % visual injury, Ob (pigweed (AMARE); compound 35 g/ha): 100%

— patent US9763445B2, “Safened herbicidal compositions comprising a pyridine carboxylic acid herbicide” (Dow AgroSciences, LLC, priority 2014, dated 2017)
